Measurements published in US4103004A, “Cardiotonic agent” (University of Hawaii, priority 1977, dated 1978).

Tests used:
isolated rat atria = assay: Bioassay for positive inotropic effect on isolated rat atria; assay type: cell-based
Procedure: Bioassay for Determining Positive Inotropic Effect
Bioassays of the solutions containing anthopleurin-C are performed on isolated atria of rat hearts. The atrium is separated from the rest of the heart and suspended in an isolated organ bath (20, 25, or 50 ml.) containing Krebs Ringer bicarbonate medium (pH 7.4) of the following composition in distilled deionized water (in mmoles): Na^+, 145; K^+, 6.02; Ca^+2, 1.22; Mg^+2, 1.33; Cl^-, 126; HCO3^-, 25.3; PO4^-3, 1.2; SO4^-2, 1.33; and glucose, 5.5. The temperature of the organ bath is maintained at 30° C., and the Krebs-Ringer medium is continuously aerated with 95% O2 --5% CO2.
The spontaneously beating atrial preparation is connected by a thin silk thread to a force-displacement transducer (Grass model FT.03), and the contractile movements are recorded on a six-channel polygraph Grass Model 7. The preparation is allowed to equilibrate under 750 mg. tension for 60 minutes prior to beginning an assay. After this equilibration, during which the preparations are washed out every 30 minutes, the spontaneous beat rate of the atria remains constant; the change during a 10-minute observation being less than 5 beats/min. The changes in contractile force and rate produced by the test solution containing anthopleurin-C is expressed as a percentage increase or decrease in tension and rhythm, with the period immediately preceding addition of test solution to the tissue bath as the baseline for comparison.

[1] = Solubility in deionized water; assay type: physicochemical
[2] = Stability at neutral and lower pH; assay type: physicochemical; conditions: neutral and lower pH values
Isoelectric focusing = assay type: physicochemical; conditions: doubly purified material
Text: For the purpose of obtaining electrophoretic properties, the anthopleurin-Cobtained in Example 1, Steps a through d below, was rechromatographed on CM Sephadex C-25, and G-10 according to the process set forth in Example 1, Steps c, and d, respectively. The doubly purified material was subjected to electrophoretic analysis using commercially available pre-cast 12% acrylamide gels and matched buffer systems obtained from Bio·Rad Laboratories, 32nd and Griffin, Richmond, California.
Isoelectric focusing gave the isoelectric point at a pH = 8.0. Disc gel electrophoresis with 12% polyacrylamide gel at pH 3.6 gave an Rf value of 0.49 versus methyl green tracking dye. […] Sodium dodecyl sulfate (SDS) disc gel electrophoresis using a 10% gel indicated a m.w. of about 5,200 after incubation with dithioerythritol, using RNase A and pancreatic trypsin inhibitor (PTI) for comparison. The molecular weight is so low that these values are only approximate.

anthopleurin-C
potency relative to ouabain in positive inotropic effect (isolated rat atria; fold as potent as ouabain): 200-1000 x
ED50, positive inotropic effect (isolated rat atria; isolated rat atria): 3 nM
chronotropic effect (isolated rat atria; isolated rat atria): does not show any chronotropic effect
solubility [1]: very soluble
stability [2]: relatively stable
isoelectric point (Isoelectric focusing): 8.0 pH
